Legend:
Assay type in all cases: in vivo, mice
E0771 tumors [1] = assay: Ultrasound shear wave elastography of tissue stiffness, bosentan dose response; conditions: 1 mg/kg daily bosentan i.p.; E0771 breast tumors
Protocol: (§1) Mice bearing syngeneic, orthotopic triple negative breast cancer (TNBC) were treated with a range of sub-therapeutic doses of bosentan, from 0.2 mg/kg to 10 mg/kg of body weight. Orthotopic models for murine mammary tumors were generated by implantation of 5×10^4 4T1 or E0771 cancer cells in 40 μl of serum-free medium into the third mammary fat pad of 6-8-week-old BALB/c and C57BL/6 female mice, respectively. 4T1 (ATCC® CRL-2539TH) and E0771 (94A001, CH3 BioSystems) mouse breast adenocarcinoma cell lines were purchased form ATCC and CH3 BioSystems, respectively. The cells were maintained at 37° C./5% CO2 in Roswell Park Memorial Institute medium (RPMI-1640, LM-R1637, Biosera) supplemented with 10% fetal bovine serum (FBS, FB-1001H, biosera) and 1% antibiotics (A5955, Sigma). Bosentan (bosentan Hydrate (S3051, Selleckchem) was dissolved in ddH2O containing 2% DMSO (GK2245, Glentham Life Science), 30% PEG300 (S6704, Selleckchem) and 2% Tween 80 (S6702, Selleckchem)) 1 mg/kg, 5 mg/kg, 10 mg/kg or equal volume of diluent (control group) was administered by intraperitoneal injection (i.p.) once a day for 10 days, starting from once the tumor volumes reached an average size of 100 mm^3. Tumors were excised when they reached an average size of 500 mm^3. Tissue stiffness was then measured non-invasively and longitudinally using ultrasound elastography. […]

4T1 tumors [2] = assay: as above; conditions: 1 mg/kg daily bosentan i.p.; 4T1 breast tumors
Protocol: as §1

[3] = Mouse body weight under bosentan monotherapy; conditions: bosentan monotherapy at any dose
Protocol: as §1

E0771 tumors [4] = assay: Primary tumor growth, bosentan plus ICB cocktail, neo-adjuvant setting; conditions: 1 mg/kg bosentan combined with ICB cocktail (10 mg/kg anti-PD-1, 5 mg/kg anti-CTLA-4); n=10
Protocol: (§2) To determine if a stiffness-reducing and hypoxia-reducing (blood flow-increasing) regimen of bosentan could enhance the efficacy of an ICB cocktail of anti-PD-1 (mouse monoclonal anti-PD-1 CD279, clone RMP1-14, BioXCell) and anti-CTLA-4 (mouse monoclonal anti-CTLA-4 CD152, clone 9D9, BioXCell) antibodies, mice bearing primary tumors in a neo-adjuvant setting were administered various treatments. Therapy was administered before removing the primary tumors surgically to assess mice survival against spontaneous metastases that arose on treatment. For the combinatorial treatment with bosentan and Immunotherapy studies, bosentan 1 mg/kg or equal volume of diluent (control group) was administered by intraperitoneal injection (i.p.) once a day for 14 days, starting from once the tumor volumes reached an average size of 5 mm diameter. Immunotherapy was administrated as a cocktail of 10 mg/kg anti-PD-1 (CD279, clone RMP1-14, BioXCell) and 5 mg/kg anti-CTLA-4 (CD152, clone 9D9) following dilution in the recommended InVivoPure pH 7.0 Dilution Buffer (BioXCell). […] Planar dimensions (x, y) of tumor were monitored every 2-3 days using a digital caliper and tumor volume was estimated from the volume of an ellipsoid and assuming that the third dimension, z, is equal to x y. […]

4T1 tumors [5] = assay: as above; conditions: 1 mg/kg bosentan combined with ICB cocktail (10 mg/kg anti-PD-1, 5 mg/kg anti-CTLA-4); n=8-10
Protocol: as §2

4T1 tumors [6] = assay: Whole tumor RT-PCR mRNA expression

## COc1ccccc1Oc1c(NS(=O)(=O)c2ccc(C(C)(C)C)cc2)nc(-c2ncccn2)nc1OCCO [bosentan, 4-tert-butyl-N-[6-(2-hydroxy-ethoxy)-5-(2-methoxy-phenoxy)-2-(pyrimidin-2-yl)pyrimidin-4-yl] benzenesulfonamide]
E0771 tumors [1]
  tissue stiffness (ultrasound elastography): reduced tissue stiffness
4T1 tumors [2]
  tissue stiffness (ultrasound elastography): reduced tissue stiffness
[3]
  mouse body weight: did not affect
E0771 tumors [4]
  tumor growth: potentiated tumor growth inhibition
4T1 tumors [5]
  tumor growth: potentiated tumor growth inhibition
4T1 tumors [6]
  T cell activity expression (mRNA): increased
  endothelial adhesion molecule expression (mRNA): increased
  hypoxia related gene-expression (mRNA): reduced

Source: US20240024317A1, “CANCER TREATMENT USING BOSENTAN IN COMBINATION WITH A CHECKPOINT INHIBITOR” (Materia Therapeutics Inc., priority 2020, published 2024)
